The record followed here is ChEMBL document CHEMBL1126514, “Thiopene systems. 15. Synthesis and antihypertensive activity of 7- (subsituted benzamido)-6-hydroxythieno[3,2,-b]pyrans as nwe potassium channel activitors” (1993).

Format in all cases: functional
Experiment [1] deals with Rattus norvegicus. Kind of experiment: Maximal change in mean arterial blood pressure comparing MAP immediately prior to and up to 240 min after oral dose in rat.
Experiment [2] relates to Rattus norvegicus. Briefly: Dose to produce 30% reduction in mean arterial pressure in rat when administered perorally. The following applies: Artery, po.
Experiment [3] relates to Rattus norvegicus. Briefly: Maximal change in mean arterial blood pressure comparing MAP immediately prior to and up to 240 min after oral dose of 1 mgkg of compound in rat.
Experiment [4] has as its system Rattus norvegicus. Briefly: Maximal change in mean arterial blood pressure comparing MAP immediately prior to and up to 240 min after oral dose of 0.3 mgkg of compound in rat.
The test system of experiment [5] is Rattus norvegicus. Kind of experiment: Maximal change in mean arterial blood pressure comparing MAP immediately prior to and up to 240 min after oral dose of 0.1 mgkg of compound in rat.

Structures are written as SMILES.

Consider `CC1(C)Oc2ccc(C#N)cc2[C@@H](N2CCCC2=O)[C@@H]1O` [CROMAKALIM], for which the “Change MAP” value with Rattus norvegicus [1] turned out to be 47%. This compound came in with an ED30 in the experiment on Rattus norvegicus [2] of 0.19 mg/kg.
As for `CC(=O)c1cc2c(s1)[C@@H](NC(=O)c1cccnc1)[C@H](O)C(C)(C)O2`, the “Change MAP” value in the experiment with Rattus norvegicus [1] was 29%.
As for `CC(=O)c1cc2c(s1)[C@@H](NC(=O)c1cccc([N+](=O)[O-])c1)[C@H](O)C(C)(C)O2`, the “Change MAP” value with Rattus norvegicus [3] is listed as 17%; with Rattus norvegicus [1], 63%.
Take `CC(=O)c1cc2c(s1)[C@@H](NC(=O)c1ccccc1)[C@H](O)C(C)(C)O2`: in the experiment with Rattus norvegicus [1], the “Change MAP” value is 55%. For the same compound, the ED30 in the experiment on Rattus norvegicus [2] turned out to be 0.2 mg/kg.
For the compound `CC1(C)Oc2cc([N+](=O)[O-])sc2[C@@H](NC(=O)c2ccccc2)[C@@H]1O`, in the experiment with Rattus norvegicus [1], the “Change MAP” value is recorded as 38%.
On to `CC(=O)c1cc2c(s1)[C@@H](NC(=O)c1ccc([N+](=O)[O-])cc1)[C@H](O)C(C)(C)O2`, for which the “Change MAP” value in the experiment with Rattus norvegicus [1] came out at 63%. For the same compound, the ED30 in the experiment with Rattus norvegicus [2] amounted to 0.89 mg/kg.
Take `CC(=O)c1cc2c(s1)[C@@H](NC(=O)c1ccc(C)cc1)[C@H](O)C(C)(C)O2`: the “Change MAP” value in the experiment on Rattus norvegicus [1] amounted to 10%.
As for `CC(=O)c1cc2c(s1)[C@@H](NC(=O)c1ccc(Cl)cc1)[C@H](O)C(C)(C)O2`, in the experiment with Rattus norvegicus [1], the “Change MAP” value is 60%. Besides, the ED30 in the experiment with Rattus norvegicus [2] is 0.11 mg/kg.
On to `CC(=O)c1cc2c(s1)[C@@H](NC(=O)c1cccc(Cl)c1)[C@H](O)C(C)(C)O2`, for which the “Change MAP” value in the experiment on Rattus norvegicus [4] is 17%; in the experiment with Rattus norvegicus [1] it was 59%.
In the experiment on Rattus norvegicus [2], `CC1(C)Oc2ccc(OC(F)(F)F)cc2[C@@H](N2Cc3ccccc3C2=O)[C@@H]1O` [CELIKALIM] came in with an ED30 of 0.5 mg/kg.
As for `CC(=O)c1cc2c(s1)[C@@H](NC(=O)c1ccccc1F)[C@H](O)C(C)(C)O2`, the “Change MAP” value is -17% in the experiment with Rattus norvegicus [3] and 59% in the experiment with Rattus norvegicus [1].
As for `COc1ccc(C(=O)N[C@@H]2c3sc(C(C)=O)cc3OC(C)(C)[C@H]2O)cc1`, the “Change MAP” value in the experiment with Rattus norvegicus [1] came to 20%.
On the same count and under the same terms, then `CC1(C)Oc2cc([N+](=O)[O-])sc2[C@@H](NC(=O)c2ccc([N+](=O)[O-])cc2)[C@@H]1O`, with 29%.
Regarding `CC(=O)c1cc2c(s1)[C@@H](NC(=O)c1ccc(F)cc1F)[C@H](O)C(C)(C)O2`, the “Change MAP” value with Rattus norvegicus [1] came to 59%; in the experiment with Rattus norvegicus [5], 16%.
In the experiment on Rattus norvegicus [2], `CC1(C)Oc2cc([N+](=O)[O-])sc2[C@@H](N2Cc3ccccc3C2=O)[C@@H]1O` had an ED30 of 0.22 mg/kg.
On to `CC(=O)c1cc2c(s1)[C@@H](NC(=O)c1ccc(F)cc1)[C@H](O)C(C)(C)O2`, for which the “Change MAP” value with Rattus norvegicus [1] worked out at 75%. Besides, the ED30 in the experiment with Rattus norvegicus [2] amounted to 0.059 mg/kg.
As for `CC1(C)Oc2cc([N+](=O)[O-])sc2[C@@H](N2CCCCC2=O)[C@@H]1O`, the ED30 with Rattus norvegicus [2] came to 0.015 mg/kg. Also, the “Change MAP” value in the experiment with Rattus norvegicus [5] is on record as 63%.
Take `CC(=O)c1cc2c(s1)[C@@H](NC(=O)c1ccco1)[C@H](O)C(C)(C)O2`: the “Change MAP” value in the experiment on Rattus norvegicus [1] is 38%.
`CC1(C)Oc2ccsc2[C@@H](NC(=O)c2ccccc2)[C@@H]1O`: the “Change MAP” value in the experiment with Rattus norvegicus [1] is recorded as 35%.
Consider `CC(=O)c1cc2c(s1)[C@@H](NC(=O)c1ccc(C(F)(F)F)cc1)[C@H](O)C(C)(C)O2`, for which the “Change MAP” value in the experiment on Rattus norvegicus [1] is recorded as 26%.
`CC(=O)c1cc2c(s1)[C@@H](NC(=O)c1ccc(F)c(F)c1)[C@H](O)C(C)(C)O2`: the “Change MAP” value with Rattus norvegicus [1] was 62%. This compound also came in with an ED30 in the experiment with Rattus norvegicus [2] of 0.099 mg/kg.
